Data taken from patent publication US20240261274A1, “TREATMENT OF MYC-DRIVEN CANCERS WITH GSPT1 DEGRADERS” (MONTE ROSA THERAPEUTICS, INC., priority 2021, published 2024).

Tests used:
Assay type in all cases: cell-based
Details in all cases: MM1 S cells, 0.3, 3 and 30 μM, 6 hours
IKZF1 = target: T1, IKZF1 (Homo sapiens, UniProt Q13422+Q96SW2); experiment: Selectivity western blot assay in MM1 S cells, IKZF1; set-up: key: A represents no degradation observed at 30 μM; B represents trace degradation at 30 μM (below 20%); C represents weak degradation at 30 μM (below 50%); D represents degradation at 30 μM (>90%); E represents degradation at 3 μM (>90%); F represents degradation at 0.3 μM (>90%)
T1 construct: endogenous in cells; host or cells: MM1 S (ATCC CRL-2974)
Experimental: (§1) MM1 S cells were purchased from ATCC (cat. Number CRL-2974), sub-cultured in 90% RPMI 1640 with 10% FBS, supplemented with 1×P/S and incubated at 37° C., 5% CO2. Compounds were stored as 10 mM DMSO stock. For the assay, MM1 S cells (3 million cells/well) were plated in 6-well plates and incubated over night. Cells were treated with respective compounds using a serial dilution: 0.3 μM, 3 μM and 30 μM as well as a vehicle only (DMSO) control for 6 hours. Media with suspension cells was subsequently transferred to 15 mL conical tubes, wells rinsed twice with ice-cold PBS and merged with cell suspension in respective 15 mL conical tube. Cells were spinned down, supernatant aspirated, pellets resuspended in ice-cold PBS and transferred to microtubes. Cells were spinned down, supernatant aspirated and pellets resuspended in 120 μL RIPA lysis buffer supplemented with protease and phosphatase inhibitors. Cell lysates were incubated on ice for 20 minutes followed by centrifugation at >20,000×g for 5 min. Supernatants were transferred to fresh microtubes and stored at −80° C. Total protein concentration was determined using a BCA assay with a BSA standard curve and concentration of all samples was adjusted to 1 mg/mL. 25 μL 4×LDS sample buffer supplemented with 100 mM DTT was added to 75 μL sample. Samples were centrifuged (8,000×g, 1 min) and incubated at 95° C. for 5 min followed by another centrifugation step (8,000×g, 1 min). 20 μL of each sample was loaded on a 4-12% gel alongside a protein molecular weight marker. Gels were run in the presence of MOPS buffer at 80 Volts for 30 min, followed by 120 Volts for 1.5 h and proteins subsequently transferred onto nitrocellulose membranes at 20 Volts for 7 min using an iBlot2 Gel Transfer Device. Membranes were then cut horizontally into two pieces, covering 80-50 kDa and 50-25 kDa. Blocking the membranes was performed by gently shaking in 5% (w/v) skim milk in TSB-T for 1 hr at room temperature. All primary antibodies were used at a 1/1000 in 5% (w/v) BSA dissolved in TBST and incubated with membranes over night at 4° C. After three washes with 1×TBST for 5 min, HRP-coupled secondary antibodies diluted in 5% (w/v) BSA/TBST (Goat Anti-Rb IgG, dil. 1/10,000; Goat Anti-Mouse IgG, dil. 1/5000) were added for 1 hr at room temperature. After three washes with 1×TBST (5 minutes each), membranes were incubated with ECL reagent for 1 min at room temperature. Chemiluminescence signals were then detected using a LAS-4000 system with default settings and signals quantified using Image Studio Lite software (version 5.2). Membrane parts previously incubated with antibody against CK1 alpha were stripped off antibodies by incubating with stripping buffer for 30 minutes followed by three washed with TBST (5 min each), blocking with 5% (w/v) skim milk for 1 hr, and incubation with primary antibody against uGAPDH overnight at 4° C. Subsequent washes, incubation with secondary antibody and signal acquisition were performed as described above.

IKZF3 = target: T2, IKZF3 (Homo sapiens, UniProt Q96SW2+Q9UKT9); experiment: Selectivity western blot assay in MM1 S cells, IKZF3; set-up: key: A represents no degradation observed at 30 μM; B represents trace degradation at 30 μM (below 20%); C represents weak degradation at 30 μM (below 50%); D represents degradation at 30 μM (>90%); E represents degradation at 3 μM (>90%); F represents degradation at 0.3 μM (>90%)
T2 construct: endogenous in cells; host or cells: MM1 S (ATCC CRL-2974)
Experimental: as §1

CK1alpha = target: T3, CK1alpha (Homo sapiens, UniProt P48729+Q96SW2); experiment: Selectivity western blot assay in MM1 S cells, CK1alpha; set-up: key: A represents no degradation observed at 30 μM; B represents trace degradation at 30 μM (below 20%); C represents weak degradation at 30 μM (below 50%); D represents degradation at 30 μM (>90%); E represents degradation at 3 μM (>90%); F represents degradation at 0.3 μM (>90%)
T3 construct: endogenous in cells; host or cells: MM1 S (ATCC CRL-2974)
Experimental: as §1

ZFP91 = target: T4, ZFP91 (Homo sapiens, UniProt Q96JP5+Q96SW2); experiment: Selectivity western blot assay in MM1 S cells, ZFP91; set-up: key: A represents no degradation observed at 30 μM; B represents trace degradation at 30 μM (below 20%); C represents weak degradation at 30 μM (below 50%); D represents degradation at 30 μM (>90%); E represents degradation at 3 μM (>90%); F represents degradation at 0.3 μM (>90%)
T4 construct: endogenous in cells; host or cells: MM1 S (ATCC CRL-2974)
Experimental: as §1

GSPT1 = GSPT1 (Homo sapiens, UniProt P15170+Q96SW2); experiment: Selectivity western blot assay in MM1 S cells, GSPT1; set-up: endogenous in cells; host or cells: MM1 S (ATCC CRL-2974)
Experimental: as §1

Chain of GSPT1 (P15170 whole entry): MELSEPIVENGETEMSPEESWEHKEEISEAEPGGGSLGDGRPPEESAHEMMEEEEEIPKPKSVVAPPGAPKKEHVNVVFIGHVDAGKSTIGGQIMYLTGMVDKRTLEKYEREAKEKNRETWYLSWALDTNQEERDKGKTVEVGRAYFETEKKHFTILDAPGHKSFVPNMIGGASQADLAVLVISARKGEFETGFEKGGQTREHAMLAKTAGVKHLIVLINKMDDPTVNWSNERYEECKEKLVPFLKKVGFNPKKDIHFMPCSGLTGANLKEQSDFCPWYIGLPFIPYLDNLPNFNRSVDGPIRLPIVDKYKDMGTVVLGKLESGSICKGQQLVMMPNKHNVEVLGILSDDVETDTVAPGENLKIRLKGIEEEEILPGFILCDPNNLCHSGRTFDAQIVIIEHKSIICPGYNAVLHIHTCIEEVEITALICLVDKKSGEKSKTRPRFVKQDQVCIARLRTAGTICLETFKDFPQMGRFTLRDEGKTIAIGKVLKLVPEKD
Chain of GSPT1 (Q96SW2 whole entry): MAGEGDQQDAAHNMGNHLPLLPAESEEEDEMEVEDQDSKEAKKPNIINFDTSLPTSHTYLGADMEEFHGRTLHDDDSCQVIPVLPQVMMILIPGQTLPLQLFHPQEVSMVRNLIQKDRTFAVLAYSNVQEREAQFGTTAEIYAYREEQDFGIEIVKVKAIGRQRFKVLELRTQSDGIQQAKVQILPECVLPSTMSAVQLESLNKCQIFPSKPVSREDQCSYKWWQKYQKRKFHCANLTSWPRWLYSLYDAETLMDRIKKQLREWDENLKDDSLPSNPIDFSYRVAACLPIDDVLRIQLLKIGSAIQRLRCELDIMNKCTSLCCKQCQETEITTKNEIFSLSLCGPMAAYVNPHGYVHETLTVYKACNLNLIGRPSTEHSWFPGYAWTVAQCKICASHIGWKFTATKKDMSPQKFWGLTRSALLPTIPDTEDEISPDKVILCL
Chain of GSPT1 (Q16531 whole entry partner): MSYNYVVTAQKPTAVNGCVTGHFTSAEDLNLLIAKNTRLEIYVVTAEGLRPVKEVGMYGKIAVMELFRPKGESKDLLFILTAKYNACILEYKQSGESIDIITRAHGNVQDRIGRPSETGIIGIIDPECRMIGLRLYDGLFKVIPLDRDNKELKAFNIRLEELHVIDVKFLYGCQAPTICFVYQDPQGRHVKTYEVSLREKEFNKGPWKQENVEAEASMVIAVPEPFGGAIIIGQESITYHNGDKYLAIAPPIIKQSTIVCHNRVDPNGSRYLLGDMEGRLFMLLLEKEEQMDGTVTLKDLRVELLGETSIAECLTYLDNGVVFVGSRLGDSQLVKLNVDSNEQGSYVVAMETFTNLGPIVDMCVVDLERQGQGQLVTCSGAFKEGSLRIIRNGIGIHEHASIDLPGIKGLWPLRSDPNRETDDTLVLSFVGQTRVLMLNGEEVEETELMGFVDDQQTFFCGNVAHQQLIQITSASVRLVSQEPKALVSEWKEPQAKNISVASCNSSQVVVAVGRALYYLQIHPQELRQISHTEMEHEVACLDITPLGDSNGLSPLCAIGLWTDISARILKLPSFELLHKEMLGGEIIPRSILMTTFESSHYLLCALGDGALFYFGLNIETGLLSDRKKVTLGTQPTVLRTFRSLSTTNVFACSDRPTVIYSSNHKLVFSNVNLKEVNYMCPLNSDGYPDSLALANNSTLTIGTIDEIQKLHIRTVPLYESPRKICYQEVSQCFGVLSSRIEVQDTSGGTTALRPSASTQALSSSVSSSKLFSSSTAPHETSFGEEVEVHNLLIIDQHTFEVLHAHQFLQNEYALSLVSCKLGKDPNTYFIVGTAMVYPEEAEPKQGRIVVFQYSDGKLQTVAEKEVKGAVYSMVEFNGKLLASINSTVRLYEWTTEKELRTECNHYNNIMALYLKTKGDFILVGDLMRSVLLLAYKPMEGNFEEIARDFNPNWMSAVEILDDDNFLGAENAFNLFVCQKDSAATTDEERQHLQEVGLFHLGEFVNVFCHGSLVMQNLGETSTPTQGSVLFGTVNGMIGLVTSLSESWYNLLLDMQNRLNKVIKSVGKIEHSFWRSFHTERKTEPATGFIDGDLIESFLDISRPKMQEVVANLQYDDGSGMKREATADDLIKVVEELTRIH
T1 sequence (Q13422 whole entry): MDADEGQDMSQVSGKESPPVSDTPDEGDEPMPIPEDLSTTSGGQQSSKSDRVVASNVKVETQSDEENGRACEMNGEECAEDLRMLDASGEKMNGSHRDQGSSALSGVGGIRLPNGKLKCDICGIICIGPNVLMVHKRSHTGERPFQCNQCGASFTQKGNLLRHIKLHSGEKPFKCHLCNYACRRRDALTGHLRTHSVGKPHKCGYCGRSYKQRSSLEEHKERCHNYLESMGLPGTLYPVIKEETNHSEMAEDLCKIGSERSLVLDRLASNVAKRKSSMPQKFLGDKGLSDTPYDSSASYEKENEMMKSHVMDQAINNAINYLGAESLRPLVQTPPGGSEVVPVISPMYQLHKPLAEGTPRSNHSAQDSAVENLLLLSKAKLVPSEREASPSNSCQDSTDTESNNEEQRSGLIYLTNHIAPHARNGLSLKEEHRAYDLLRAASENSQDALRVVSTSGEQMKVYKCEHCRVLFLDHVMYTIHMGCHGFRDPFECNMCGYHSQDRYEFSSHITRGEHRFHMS
T1 sequence (Q96SW2 whole entry): as the sequence (Q96SW2 whole entry) above
T1 sequence (Q16531 whole entry partner): as the sequence (Q16531 whole entry partner) above
T4 sequence (Q96JP5 whole entry): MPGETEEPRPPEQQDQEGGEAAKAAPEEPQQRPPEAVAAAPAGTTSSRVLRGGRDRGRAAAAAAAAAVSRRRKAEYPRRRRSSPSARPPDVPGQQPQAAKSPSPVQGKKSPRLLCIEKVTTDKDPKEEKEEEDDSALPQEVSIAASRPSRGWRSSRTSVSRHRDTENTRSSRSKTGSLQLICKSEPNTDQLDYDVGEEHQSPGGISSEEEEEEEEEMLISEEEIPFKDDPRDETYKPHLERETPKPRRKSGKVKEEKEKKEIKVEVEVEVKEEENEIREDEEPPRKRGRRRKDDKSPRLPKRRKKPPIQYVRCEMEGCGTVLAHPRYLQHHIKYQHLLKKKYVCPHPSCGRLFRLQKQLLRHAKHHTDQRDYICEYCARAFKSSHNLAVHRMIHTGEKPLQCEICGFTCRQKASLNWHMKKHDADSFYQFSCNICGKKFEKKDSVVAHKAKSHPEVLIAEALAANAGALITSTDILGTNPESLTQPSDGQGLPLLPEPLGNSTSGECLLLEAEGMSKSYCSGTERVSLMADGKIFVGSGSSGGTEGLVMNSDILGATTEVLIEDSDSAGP
T4 sequence (Q96SW2 whole entry): as the sequence (Q96SW2 whole entry) above
T4 sequence (Q16531 whole entry partner): as the sequence (Q16531 whole entry partner) above
T2 sequence (Q9UKT9 whole entry): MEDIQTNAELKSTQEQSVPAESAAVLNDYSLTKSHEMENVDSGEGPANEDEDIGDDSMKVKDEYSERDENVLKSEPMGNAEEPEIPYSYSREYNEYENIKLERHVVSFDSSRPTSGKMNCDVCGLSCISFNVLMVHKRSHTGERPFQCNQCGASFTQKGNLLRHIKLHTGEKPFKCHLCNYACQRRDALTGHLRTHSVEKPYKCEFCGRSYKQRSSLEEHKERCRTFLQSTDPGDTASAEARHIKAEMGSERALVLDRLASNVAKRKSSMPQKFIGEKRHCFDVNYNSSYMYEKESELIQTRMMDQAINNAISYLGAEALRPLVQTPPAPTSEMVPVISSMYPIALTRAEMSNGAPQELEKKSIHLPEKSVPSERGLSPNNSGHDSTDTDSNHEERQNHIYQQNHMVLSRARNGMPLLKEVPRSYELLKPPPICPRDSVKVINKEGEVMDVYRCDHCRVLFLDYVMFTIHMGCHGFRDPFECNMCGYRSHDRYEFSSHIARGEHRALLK
T2 sequence (Q96SW2 whole entry): as the sequence (Q96SW2 whole entry) above
T2 sequence (Q16531 whole entry partner): as the sequence (Q16531 whole entry partner) above
T3 sequence (P48729 whole entry): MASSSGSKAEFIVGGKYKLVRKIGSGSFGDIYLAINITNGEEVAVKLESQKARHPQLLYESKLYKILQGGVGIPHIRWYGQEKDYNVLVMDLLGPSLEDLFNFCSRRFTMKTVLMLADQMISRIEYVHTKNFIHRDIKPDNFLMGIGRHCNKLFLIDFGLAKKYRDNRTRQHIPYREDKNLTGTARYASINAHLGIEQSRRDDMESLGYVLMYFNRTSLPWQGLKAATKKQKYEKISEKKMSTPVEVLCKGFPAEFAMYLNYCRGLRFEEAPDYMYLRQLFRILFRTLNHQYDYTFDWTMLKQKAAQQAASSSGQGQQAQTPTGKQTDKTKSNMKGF
T3 sequence (Q96SW2 whole entry): as the sequence (Q96SW2 whole entry) above
T3 sequence (Q16531 whole entry partner): as the sequence (Q16531 whole entry partner) above

In the case of `Cc1c(Cl)cc(NC(=O)NCc2ccc3c(c2)C(=O)N(C2CCC(=O)NC2=O)C3)cc1CN(C)C` (centres unmarked) [Compound 75], the IKZF1 degradation (IKZF1) is reported as “A”, the IKZF3 degradation (IKZF3) is reported as “A” and the CK1alpha degradation (CK1alpha) is reported as “A”. For the same molecule, the ZFP91 degradation (ZFP91) was “A” and the GSPT1 degradation (GSPT1) was “E (E represents degradation at 3 μM (>90%))”.
`Cc1c(Cl)cc(NC(=O)NCc2ccc3c(c2)C(=O)N(C2CCC(=O)NC2=O)C3)cc1CN1CCOCC1` (centres unmarked) [Compound 82] was tested, and the IKZF1 degradation (IKZF1) was “A”, the IKZF3 degradation (IKZF3) was “A” and the CK1alpha degradation (CK1alpha) was “A”. The ZFP91 degradation (ZFP91) was “A” and the GSPT1 degradation (GSPT1) was “F (F represents degradation at 0.3 μM (>90%))”.
`Cc1cc(C)c(NC(=O)NCc2ccc3c(c2)C(=O)N(C2CCC(=O)NC2=O)C3)cc1Cl` (centres unmarked) [Compound 85] was tested, and the IKZF1 degradation (IKZF1) was “A”, the IKZF3 degradation (IKZF3) was “A” and the CK1alpha degradation (CK1alpha) was “B (B represents trace degradation at 30 μM (below 20%))”. For the same molecule, the ZFP91 degradation (ZFP91) was “A” and the GSPT1 degradation (GSPT1) was “E (E represents degradation at 3 μM (>90%))”.
In the case of `Cc1ccc(NC(=O)NCc2ccc3c(c2)C(=O)N(C2CCC(=O)NC2=O)C3)c(Cl)c1Cl` (centres unmarked) [Compound 87], the IKZF1 degradation (IKZF1) is reported as “A”, the IKZF3 degradation (IKZF3) is reported as “A” and the CK1alpha degradation (CK1alpha) is reported as “A”. For the same molecule, the ZFP91 degradation (ZFP91) was “A” and the GSPT1 degradation (GSPT1) was “E (E represents degradation at 3 μM (>90%))”.
For `O=C1CCC(N2Cc3ccc(CNC(=O)Nc4cccc(CN5CCOCC5)c4)cc3C2=O)C(=O)N1` (centres unmarked) [Compound 105], the IKZF1 degradation (IKZF1) was “B (B represents trace degradation at 30 μM (below 20%))”, the IKZF3 degradation (IKZF3) was “A” and the CK1alpha degradation (CK1alpha) was “A”. The ZFP91 degradation (ZFP91) was “B (B represents trace degradation at 30 μM (below 20%))” and the GSPT1 degradation (GSPT1) was “E (E represents degradation at 3 μM (>90%))”.
With `Cc1c(Cl)cc(NC(=O)NCc2ccc3c(c2)C(=O)N(C2CCC(=O)NC2=O)C3)cc1CC1COCOC1` (centres unmarked) [Compound 132] the IKZF1 degradation (IKZF1) was “A”, the IKZF3 degradation (IKZF3) was “A” and the CK1alpha degradation (CK1alpha) was “C (C represents weak degradation at 30 μM (below 50%))”. The ZFP91 degradation (ZFP91) was “C (C represents weak degradation at 30 μM (below 50%))” and the GSPT1 degradation (GSPT1) was “F (F represents degradation at 0.3 μM (>90%))”.
With `COc1cc(C)c(Cl)cc1NC(=O)OCc1ccc2c(c1)C(=O)N(C1CCC(=O)NC1=O)C2` (centres unmarked) [Compound 201] the IKZF1 degradation (IKZF1) was “A”, the IKZF3 degradation (IKZF3) was “B (B represents trace degradation at 30 μM (below 20%))” and the CK1alpha degradation (CK1alpha) was “B (B represents trace degradation at 30 μM (below 20%))”. For the same molecule, the ZFP91 degradation (ZFP91) was “A” and the GSPT1 degradation (GSPT1) was “F (F represents degradation at 0.3 μM (>90%))”.
For `Cc1ncc(NC(=O)OCc2ccc3c(c2)C(=O)N(C2CCC(=O)NC2=O)C3)cc1Cl` (centres unmarked) [Compound 206], the IKZF1 degradation (IKZF1) was “A”, the IKZF3 degradation (IKZF3) was “B (B represents trace degradation at 30 μM (below 20%))” and the CK1alpha degradation (CK1alpha) was “A”. The GSPT1 degradation (GSPT1) was “F (F represents degradation at 0.3 μM (>90%))”.
In the case of `O=C1CCC(N2Cc3ccc(COC(=O)Nc4ccc(N5CCCCC5)nc4)cc3C2=O)C(=O)N1` (centres unmarked) [Compound 215], the IKZF1 degradation (IKZF1) is reported as “A”, the IKZF3 degradation (IKZF3) is reported as “B (B represents trace degradation at 30 μM (below 20%))” and the CK1alpha degradation (CK1alpha) is reported as “C (C represents weak degradation at 30 μM (below 50%))”. For the same molecule, the GSPT1 degradation (GSPT1) was “F (F represents degradation at 0.3 μM (>90%))”.
`O=C1CCC(N2Cc3ccc(COC(=O)Nc4ccc(-c5ccccc5)nc4)cc3C2=O)C(=O)N1` (centres unmarked) [Compound 242] was tested, and the IKZF1 degradation (IKZF1) was “A”, the IKZF3 degradation (IKZF3) was “A” and the CK1alpha degradation (CK1alpha) was “B (B represents trace degradation at 30 μM (below 20%))”. The GSPT1 degradation (GSPT1) was “F (F represents degradation at 0.3 μM (>90%))”.
In the case of `CC(C)(C)c1ccc(NC(=O)OCc2ccc3c(c2)C(=O)N(C2CCC(=O)NC2=O)C3)cn1` (centres unmarked) [Compound 243], the IKZF1 degradation (IKZF1) is reported as “A”, the IKZF3 degradation (IKZF3) is reported as “B (B represents trace degradation at 30 μM (below 20%))” and the CK1alpha degradation (CK1alpha) is reported as “C (C represents weak degradation at 30 μM (below 50%))”. For the same molecule, the GSPT1 degradation (GSPT1) was “F (F represents degradation at 0.3 μM (>90%))”.
`CC(C)(C)c1ccc(NC(=O)OCc2ccc3c(c2)C(=O)N(C2CCC(=O)NC2=O)C3)cc1` (centres unmarked) [Compound 247] was tested, and the IKZF1 degradation (IKZF1) was “A”, the IKZF3 degradation (IKZF3) was “A” and the CK1alpha degradation (CK1alpha) was “B (B represents trace degradation at 30 μM (below 20%))”. For the same molecule, the ZFP91 degradation (ZFP91) was “B (B represents trace degradation at 30 μM (below 20%))” and the GSPT1 degradation (GSPT1) was “F (F represents degradation at 0.3 μM (>90%))”.
`Cc1c(Cl)cc(NC(=O)OCc2ccc3c(c2)C(=O)N(C2CCC(=O)NC2=O)C3)cc1OCCN1CCOCC1` (centres unmarked) [Compound 248] was tested, and the IKZF1 degradation (IKZF1) was “A”, the IKZF3 degradation (IKZF3) was “B (B represents trace degradation at 30 μM (below 20%))” and the CK1alpha degradation (CK1alpha) was “B (B represents trace degradation at 30 μM (below 20%))”. The GSPT1 degradation (GSPT1) was “F (F represents degradation at 0.3 μM (>90%))”.
`CCc1ncc(NC(=O)OCc2ccc3c(c2)C(=O)N(C2CCC(=O)NC2=O)C3)cc1C` (centres unmarked) [Compound 249] was tested, and the IKZF1 degradation (IKZF1) was “A”, the IKZF3 degradation (IKZF3) was “A” and the CK1alpha degradation (CK1alpha) was “B (B represents trace degradation at 30 μM (below 20%))”. For the same molecule, the ZFP91 degradation (ZFP91) was “B (B represents trace degradation at 30 μM (below 20%))” and the GSPT1 degradation (GSPT1) was “F (F represents degradation at 0.3 μM (>90%))”.
